Columns and labels:
[1] = test system: glutathione; test: ELISA quantification of glutathione in keratinocyte culture; assay type: cell-based; settings: 0.0005%, Treatment
Protocol: In simple terms, in ELISA an unknown amount of antigen is affixed to a surface, and then a specific antibody is washed over the surface so that it can bind to the antigen. […] This antibody is linked to an enzyme, and in the final step a substance is added that the enzyme can convert to some detectable signal. Thus in the case of fluorescence ELISA, when light is shone upon the sample, any antigen/antibody complexes will fluoresce so that the amount of antigen in the sample can be measured.
The ELISA kit used in this experiment was purchased from Cayman Chemicals. The experiment was performed as per the manufacturer's directions.

[2] = test system: glyoxalase I; test: Quantification of Glyoxalase I via immunoassay (western blot) in keratinocyte culture; assay type: cell-based; settings: 0.0005%, keratinocyte culture treated 24 hrs
Protocol: The blots were then transferred and probed with a fluorescent anti-body to glyoxalse I, purchased from Santa Cruz Biotechnology. Absorbance was measured and graphed.

C=CCSSSCC=C [Diallyl Trisulfide]
Glut Mean ([1]; Untreated mean 19): 21
Glut 1 ([1]; replicate 1, Untreated 18): 20
abs 1 ([1]; replicate 1 absorbance): 0.033
Glut 2 ([1]; replicate 2, Untreated 20): 22
abs 2 ([1]; replicate 2 absorbance): 0.036
Glut 3 ([1]; replicate 3, Untreated 20): 20
abs 3 ([1]; replicate 3 absorbance): 0.034
Inv OD 1 ([2]; replicate 1): 91.6
OD1 ([2]; replicate 1): 125.205
Inv OD 2 ([2]; replicate 2): 90.7
OD 2 ([2]; replicate 2): 126.011
Inv OD 3 ([2]; replicate 3): 71.1
OD 3 ([2]; replicate 3): 145.641
Inv OD 4 ([2]; replicate 4): 129.4
OD4 ([2]; replicate 4): 87.372
Inv OD 5 ([2]; replicate 5): 93.0
OD 5 ([2]; replicate 5): 123.78
Inv OD 6 ([2]; replicate 6): 86.2
OD 6 ([2]; replicate 6): 130.525
Inv OD Mean ([2]; significantly different from Untreated (mean 66.5)): 93.7
